Results: PMC12696353, “Structural insights into endogenous agonist selectivity of aminergic receptors from the octopamine β2 receptor” (PNAS Nexus, 2025)
Substitutions are numbered along the chain they refer to. Read-outs that look alike come from different tables or passages of the source.

Assays:
[1] = biological target: I. scapularis octβ2R (is-octβ2R) (Ixodes scapularis, UniProt A0ACM8E5E8); assay: cell-based; format: cell-based; details: for Emax: AP-TGFα release
Experimental: (§1) The TGFα shedding assay was performed as previously described ([28]). […] The cells were transfected using lipofectamine 2000 with plasmids encoding alkaline phosphatase–tagged TGFα (AP-TGFα) (2.5 ng/mL), is-octβ2Rs (1 ng/mL), and Gαq/s (0.5 ng/mL). After 24 h, the cells were washed with phosphate-buffered saline and resuspended in Hank's balanced salt solution (HBSS) (supplemented with 5 mM HEPES [pH 7.4]). The cells (90 μL/well) were plated in a 96-well plate and incubated with 10 μL of HBSS solution containing various concentrations of compounds for 1 h at 37 °C. Following centrifugation (200 × g, 2 min), 80 μL of the supernatant was transferred to a separate 96-well plate. Subsequently, 80 µL of 2× para-nitrophenyl phosphate (pNPP) buffer (containing 10 mM pNPP in 40 mM Tris–HCl [pH 9.5], 40 mM NaCl, and 10 mM MgCl2) was added to both the supernatant and cell-containing plates. The optical density at 405 nm of both plates was measured before and after a 1 h incubation at room temperature using a microplate reader (SpectraMax iD3, Molecular Devices, San Jose, CA, United States). AP-TGFα release was calculated using the following formulas:
(§2) ΔOD405=OD450(1h)−OD405(0h)AP−TGFαinsupernatant(%)=(ΔOD405Sup/[ΔOD450Sup+ΔOD405Cell])×125AP−TGFαrelease(%)=AP−TGFαinsupernatantunderastimulatedcondition(%)−AP−TGFαinsupernatantunderavehicle−treatedcondition
(§3) where OD405 (0 h) and […] represent the OD405 before and after a 1 h incubation, respectively, and OD405Sup and OD405Cell represent the OD405 of supernatant and cell plates, respectively. For all pharmacological analyses, nonlinear regression curve fitting was performed with a 3-parameter sigmoid model (Hill coefficient = 1) using Prism 8 (GraphPad Software, La Jolla, CA, United States).

[2] = biological target: T1, is-octβ2R T60^1.41P mutant (Ixodes scapularis, UniProt A0ACM8E5E8); assay: TGFα shedding assay, amitraz-resistant mutant T60^1.41P; format: cell-based; details: Table S4
T1 sequence (A0ACM8E5E8 1-384 T39P): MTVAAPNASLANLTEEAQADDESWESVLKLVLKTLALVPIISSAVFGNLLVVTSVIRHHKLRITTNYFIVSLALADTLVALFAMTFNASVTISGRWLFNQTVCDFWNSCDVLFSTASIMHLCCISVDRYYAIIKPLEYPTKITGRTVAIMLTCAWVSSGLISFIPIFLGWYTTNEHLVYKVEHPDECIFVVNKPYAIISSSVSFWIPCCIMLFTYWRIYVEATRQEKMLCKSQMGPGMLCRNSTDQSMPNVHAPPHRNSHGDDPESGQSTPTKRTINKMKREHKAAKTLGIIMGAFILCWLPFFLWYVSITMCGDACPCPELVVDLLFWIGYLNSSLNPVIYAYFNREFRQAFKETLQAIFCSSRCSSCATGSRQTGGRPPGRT
Experimental: as §1, §2, §3

[3] = biological target: T2, is-octβ2R I62^1.43T mutant (Ixodes scapularis, UniProt A0ACM8E5E8, I41T); assay: TGFα shedding assay, amitraz-resistant mutant I62^1.43T; format: cell-based; details: Table S4
T2 sequence (A0ACM8E5E8 1-384 I41T): T1 sequence (A0ACM8E5E8 1-384 T39P) with P39T, I41T
Experimental: as §1, §2, §3

[4] = test system: is-octβ2R D110^3.32A mutant; assay: TGFα shedding assay, mutant D110^3.32A; format: cell-based, Ixodes scapularis; details: Table S6
Experimental: as §1
(§4) ΔOD405=OD450(1h)−OD405(0h)AP−TGFαinsupernatant(%)=(ΔOD405Sup/[ΔOD450Sup+ΔOD405Cell])×125AP−TGFαrelease(%)=AP−TGFαinsupernatantunderastimulatedcondition(%)−AP−TGFαinsupernatantunderavehicle−treatedcondition […]

[5] = biological target: is-octβ2R V111^3.33A mutant (Ixodes scapularis, UniProt A0ACM8E5E8, V111A); assay: TGFα shedding assay, mutant V111^3.33A; format: cell-based
Experimental: as §1, §4

[6] = biological target: is-octβ2R S114^3.36A mutant (Ixodes scapularis, UniProt A0ACM8E5E8, S114A); assay: TGFα shedding assay, mutant S114^3.36A; format: cell-based; details: Table S6
Experimental: as §1, §4

[7] = biological target: is-octβ2R T115^3.37A mutant (Ixodes scapularis, UniProt A0ACM8E5E8, T115A); assay: TGFα shedding assay, mutant T115^3.37A; format: cell-based
Experimental: as §1, §4

[8] = test system: is-octβ2R I118^3.40A mutant; assay: TGFα shedding assay, mutant I118^3.40A; format: cell-based, Ixodes scapularis; details: Table S6
Experimental: as §1, §4

[9] = test system: is-octβ2R Y195^5.38A mutant; assay: TGFα shedding assay, mutant Y195^5.38A; format: cell-based, Ixodes scapularis; details: Table S6
Experimental: as §1, §4

[10] = biological target: is-octβ2R S203^5.46A mutant (Ixodes scapularis, UniProt A0ACM8E5E8, S203A); assay: TGFα shedding assay, mutant S203^5.46A; format: cell-based
Experimental: as §1, §4

[11] = test system: is-octβ2R F303^6.51A mutant; assay: TGFα shedding assay, mutant F303^6.51A; format: cell-based, Ixodes scapularis; details: Table S6
Experimental: as §1, §4

[12] = test system: is-octβ2R Y307^6.55A mutant; assay: TGFα shedding assay, mutant Y307^6.55A; format: cell-based, Ixodes scapularis; details: Table S6
Experimental: as §1, §4

[13] = test system: is-octβ2R Y332^7.43A mutant; assay: TGFα shedding assay, mutant Y332^7.43A; format: cell-based, Ixodes scapularis; details: Table S6
Experimental: as §1, §4

[14] = biological target: is-octβ2R F328^7.39A mutant (Ixodes scapularis, UniProt A0ACM8E5E8, F328A); assay: TGFα shedding assay, mutant F328^7.39A; format: cell-based
Experimental: as §1, §4

[15] = HEK293, 1 h, Table S2, wild type, HEK293 cells, mean ± SEM, n = 3
[16] = logEC50, Table S2, wild type, HEK293 cells, mean ± SEM, n = 3
[17] = Table S6, read-out: logEC50 (converted)

Molecule `CN/C=N/c1ccc(C)cc1C` [DPMF, N-2,4-dimethylphenyl-N′-methylformamidine] has an Emax ([1]; 1 h, Table S4, WT) of 21 ± 1%, an Emax ([1]; 1 h, Table S6, WT) of 25 ± 0.7% and an Emax [1, 15] of 24 ± 0.6%. For the same molecule, the EC50 ([1]; LogEC50, Table S4, WT) was 7.94 nM, the EC50 [1, 16] was 3.98 nM and the EC50 [2] was 7.94 nM. The EC50 [3] was 2 nM, the logEC50 [4] was “no activity” and the EC50 [5, 17] was 251 nM. The EC50 ([5]; read-out: EC50) was 320 nM, the EC50 [6] was 251 nM and the EC50 [7, 17] was 5.01 nM. For the same molecule, the EC50 ([7]; read-out: EC50) was 5 nM, the logEC50 [8] was “no activity” and the logEC50 [9] was “no activity”. For the same molecule, the EC50 [10, 17] was 1.26 nM, the EC50 ([10]; read-out: EC50) was 1.3 nM and the logEC50 [11] was “no activity”. For the same molecule, the logEC50 [12] was “no activity” and the logEC50 [13] was “signal observed only at a concentration of 10^−5 M”.
In the case of `NCC(O)c1ccc(O)cc1` (stereo not shown) [Octopamine, octopamine], the Emax ([1]; 1 h, Table S4, WT) is reported as 23 ± 0.8%, the Emax ([1]; 1 h, Table S6, WT) is reported as 27 ± 1.5% and the Emax [1, 15] is reported as 27 ± 0.7%. It also gave an EC50 ([1]; LogEC50, Table S4, WT) of 10 nM, an EC50 [1, 16] of 20 nM and an EC50 ([1]; logEC50, Table S6, WT) of 25.1 nM. For the same molecule, the “potency (EC50) relative to the other TDAs” value ([1]; wild type, order octopamine > tyramine > noradrenaline > dopamine) was “highest potency”, the EC50 [2] was 10 nM and the EC50 [3] was 5.01 nM. The logEC50 [4] was “no activity”, the logEC50 [8] was “no activity” and the logEC50 [9] was “no activity”. For the same molecule, the logEC50 [11] was “no activity”, the logEC50 [12] was “no activity” and the EC50 [14, 17] was 1000 nM. For the same molecule, the EC50 ([14]; stated as a range in text, read-out: EC50) was ~1000 nM and the logEC50 [13] was “signal observed only at 10-5 M”.
